How the values were obtained:
[1] = test system: Escherichia coli ATCC #8739; assay: Microbial Time Kill Assay; type: cell-based; conditions: 150 ppm AFC, 15 second contact time
[2] = test system: Enterococcus faecium (VRE); assay: Carrier test; type: cell-based; conditions: <180 ppm, glass slide carriers
[3] = test system: Bacillus subtilis var. niger CIP 7 718; assay: Sporicidal suspension test; type: cell-based
Method: (§1) Sporicidal activity tests were performed using hypochlorous acid solution against Bacillus cereus CIP 7803, Bacillus subtilis CIP 7718, Clostridium sporogenes CIP 7939. Stock spore suspensions of Bacillus cereus CIP 7803, Bacillus subtilis CIP 7718, Clostridium sporogenes CIP 7939 were obtained from the Pasteur Institute's National Collection for the Culture of micro-organisms. Spore suspensions (1 ml) were added to 4 ml of sterile distilled water and 5 ml of hypochlorous acid solution at a range of concentrations at 20° C. After an exposure time of 60 minutes, 1 ml samples were neutralized using standard quench solution. All samples were serially diluted, plated out on selective agar, incubated aerobically or anaerobically at either 30° C. or 37° C. for 72 hours and colonies forming units counted.

[4] = test system: Clostridium sporogenes CIP 7 939; assay: Sporicidal suspension test; type: cell-based
Method: as §1

[5] = test system: Candida albicans ATCC 10231; assay: Fungicidal suspension test; type: cell-based
Method: (§2) Fungicidal activity tests were performed using hypochlorous acid (140-150 ppm) against Candida albicans ATCC 10231 and Aspergillus niger ATCC 16404. Stock culture of Candida albicans ATCC 10231 and Aspergillus niger ATCC 16404 were grown and maintained on Malt Extract Agar at 30° C. […] All samples were serially diluted, plated out on Tryptic Soy Agar, incubated at 37° C. for 3 days and colonies forming units counted.

[6] = test system: Aspergillus niger ATCC 16404; assay: Fungicidal suspension test; type: cell-based
Method: as §2

Poliovirus Enterovirus 1 = type: cell-based
[7] = test system: Serratia marcescens ATCC #14756; assay: Microbial Time Kill Assay; type: cell-based; conditions: 150 ppm AFC, 15 second contact time
[8] = test system: Bacteroides fragilis ATCC #25285; assay: Microbial Time Kill Assay; type: cell-based; conditions: 150 ppm AFC, 15 second contact time
[9] = Ocular irritation study (Draize); type: in vivo, New Zealand white rabbits; conditions: 0.1 ml, 689.5 ppm AFC, conjunctival sac; Draize scoring days 1, 2 and 3 post dose
Method: An eye irritation study was conducted on six healthy New Zealand white rabbits, free from evidence of ocular irritation and corneal abnormalities. The test article (0.1 ml hypochlorous acid, 689.5 ppm AFC) was placed into the conjunctival sac of one eye of each rabbit. The contralateral eye served as a control. The eyes were examined and scored by the Draize technique for any evidence of irritation or abnormalities of the cornea, on days 1, 2, and 3 post dose. The primary eye irritation score of each rabbit, each day was calculated. All eyes appeared normal at each observation period and there were no abnormal physical signs noted.

[10] = test system: Staphylococcus hominis ATCC #25615; assay: Microbial Time Kill Assay; type: cell-based; conditions: 150 ppm AFC, 15 second contact time
[11] = test system: Staphylococcus haemolyticus ATCC #29968; assay: Microbial Time Kill Assay; type: cell-based; conditions: 150 ppm AFC, 15 second contact time
Adenovirus, type V = assay: Virucidal suspension test; type: cell-based
[12] = test system: Klebsiella oxytoca ATCC #12833; assay: Microbial Time Kill Assay; type: cell-based; conditions: 150 ppm AFC, 15 second contact time
[13] = test system: Haemophilus influenza ATCC #8149; assay: Microbial Time Kill Assay; type: cell-based; conditions: 150 ppm AFC, 15 second contact time
[14] = test system: Candida albicans ATCC #10231; assay: Microbial Time Kill Assay; type: cell-based; conditions: 150 ppm AFC, 15 second contact time
Method: as §2

[15] = test system: Streptococcus pyogenes ATCC #19615; assay: Microbial Time Kill Assay; type: cell-based; conditions: 150 ppm AFC, 15 second contact time
[16] = test system: Pseudomonas aeruginosa ATCC #9027; assay: Microbial Time Kill Assay; type: cell-based; conditions: 150 ppm AFC, 15 second contact time
coliphage MS2 = assay: MS2 coliphage suspension test; type: cell-based; conditions: 20-200 mg/L, within a contact time of 20 seconds
[17] = test system: Staphylococcus aureus ATCC #6538; assay: Microbial Time Kill Assay; type: cell-based; conditions: 150 ppm AFC, 15 second contact time
[18] = test system: Enterococcus faecium ATCC 10541; assay: Bactericidal suspension test; type: cell-based
[19] = test system: Orthopoxvirus from vaccine; type: cell-based
[20] = hypochlorous acid 40-180 ppm, suspension test

OCl [hypochlorous acid]
% Reduction (% Kill) [1]: >99.999% | HOCl Solution Log10 [1]: ≤1 | HOCl Solution Survivors [1]: <10 | Log Reduction [1]: ≥5.28 | Time to achieve pass [2]: 5 min | contact time after which pass was achieved [3, 20]: 60 min | Test Result (Log reduction) ([3]; in 60 min., 20° C. ± 1° C.): >10^6 in 60 min. | contact time after which pass was achieved [4, 20]: 60 min | Test Result (Log reduction) ([4]; in 60 min., 20° C. ± 1° C.): >10^6 in 60 min. | contact time after which pass was achieved [5, 20]: 15 s | Test Result (Log reduction) ([5]; in 5 min., 20° C. ± 1° C.): >10^4 in 5 min. | contact time after which pass was achieved [6, 20]: 15 s | Test Result (Log reduction) ([6]; in 5 min., 20° C. ± 1° C.): >10^4 in 5 min. | contact time after which pass was achieved (Poliovirus Enterovirus 1; [20]): 15 min | Test Result (Log reduction) (Poliovirus Enterovirus 1; in 15 min., 20° C. ± 1° C.): >10^4 in 15 min. | % Reduction (% Kill) [7]: >99.999% | HOCl Solution Log10 [7]: ≤1 | HOCl Solution Survivors [7]: <10 | Log Reduction [7]: ≥5.08 | % Reduction (% Kill) [8]: >99.999% | HOCl Solution Log10 [8]: ≤1 | HOCl Solution Survivors [8]: <10 | Log Reduction [8]: ≥5.66 | ocular irritation [9]: no ocular irritation | % Reduction (% Kill) [10]: >99.999% | HOCl Solution Log10 [10]: ≤1 | HOCl Solution Survivors [10]: <10 | Log Reduction [10]: ≥5.68 | % Reduction (% Kill) [11]: >99.999% | HOCl Solution Log10 [11]: ≤1 | HOCl Solution Survivors [11]: <10 | Log Reduction [11]: ≥5.57 | Test Result (Log reduction) (Adenovirus, type V): >10^4 in 15 min. | contact time after which pass was achieved (Adenovirus, type V): 15 min | % Reduction (% Kill) [12]: >99.999% | HOCl Solution Log10 [12]: ≤1 | HOCl Solution Survivors [12]: <10 | Log Reduction [12]: ≥5.18 | % Reduction (% Kill) [13]: >99.999% | HOCl Solution Log10 [13]: ≤1 | HOCl Solution Survivors [13]: <10 | Log Reduction [13]: ≥5.59 | % Reduction (% Kill) [14]: >99.999% | HOCl Solution Log10 [14]: ≤1 | HOCl Solution Survivors [14]: <10 | Log Reduction [14]: ≥5.63 | % Reduction (% Kill) [15]: >99.999% | HOCl Solution Log10 [15]: ≤1 | HOCl Solution Survivors [15]: <10 | Log Reduction [15]: ≥5.53 | % Reduction (% Kill) [16]: >99.999% | HOCl Solution Log10 [16]: ≤1 | HOCl Solution Survivors [16]: <10 | Log Reduction [16]: ≥5.11 | reduction of MS2 (coliphage MS2): 3 log10 | % Reduction (% Kill) [17]: >99.995% | HOCl Solution Log10 [17]: ≤1 | HOCl Solution Survivors [17]: <10 | Log Reduction [17]: ≥4.96 | contact time after which pass was achieved [18, 20]: 15 s | Test Result (Log reduction) ([18]; in 5 min., 20° C. ± 1° C.): >10^5 in 5 min. | contact time after which pass was achieved [19, 20]: 15 min | Test Result (Log reduction) ([19]; in 15 min., 20° C. ± 1° C.): >10^4 in 15 min.

Reference: US10632147B2, “Methods and compositions for treating inflammatory disorders” (priority 2007, dated 2020)
